Here are results for two molecules from patent publication US6525001B1, “Substituted pyrimidine and pyridine herbicides” (Mid-American Commercialization Corporation, priority 1997, dated 2003).

One may read the melting point as the temperature of the solid-liquid transition.

Each structure is given as a SMILES string.

The molecule `Cc1cnc(-n2ccc(C(F)(F)F)n2)nc1C(=O)c1cccc(C(F)(F)F)c1` [Example 4, [5-methyl-2-[3-(trifluoromethyl)-1H-pyrazol-1-yl]-4-pyrimidinyl][3-(trifluoromethyl)phenyl]methanone] came in with a melting point of 82 to 91 °C.

The molecule `Cc1cnc(-c2ccc(C(F)(F)F)cc2)nc1C(=O)c1cccc(C(F)(F)F)c1` [Example 5, [5-methyl-2-[4-(trifluoromethyl)phenyl]-4-pyrimidinyl][3-(trifluoromethyl)phenyl]methanone] showed a melting point of 98 to 100 °C.
